According to patent publication US20060039856A1, “Magnetic resonance with stimulation” (McLean Hospital Corporation, priority 2001, published 2006):

Tested on: right and left V1 (primary visual cortex) BOLD signal
Assay: BOLD fMRI of visual cortex during red and blue photic stimulation after oral drug or placebo
Conditions: for mean BOLD signal change, higher in drug than in placebo condition: all trials, 2.5 mg oral

C[C@H](N)Cc1ccccc1.C[C@H](N)Cc1ccccc1.O=S(=O)(O)O [d-amphetamine, d-amphetamine sulfate]
mean BOLD signal change, higher in drug than in placebo condition (blue light 0.12 lux, drug vs placebo (1.60%)): 28%
effect of time following drug administration on BOLD signal response (linear regression) (blue light, Z=-2.471, P=0.013, decreasing BOLD signal over time): significant effect of time
mean BOLD signal change, higher in drug than in placebo condition (red light 0.12 lux, drug vs placebo (0.95%)): 30%
effect of time following drug administration on BOLD signal response (linear regression) (red light, Z=-0.470, P=0.638): no significant effect of drug over time
